ChEMBL document CHEMBL4417641, “Use of 2-(substituted phenylamino)benzoic acid fto inhibitor in treating leukemia” (2018)
Calls of active or inactive are those of the source. No cut-off for these calls is given here.

Tests used:
[1] = biological target: Alpha-ketoglutarate-dependent dioxygenase FTO (Homo sapiens, UniProt Q9C0B1); test: Inhibition of FTO (unknown origin) assessed as reduction in demethylation using 39nt-m6 A-ssDNA and 2OG incubated for 2 hrs by non-denaturing polyacrylamide electrophoresis method
Sequence of Alpha-ketoglutarate-dependent dioxygenase FTO (Q9C0B1 whole entry): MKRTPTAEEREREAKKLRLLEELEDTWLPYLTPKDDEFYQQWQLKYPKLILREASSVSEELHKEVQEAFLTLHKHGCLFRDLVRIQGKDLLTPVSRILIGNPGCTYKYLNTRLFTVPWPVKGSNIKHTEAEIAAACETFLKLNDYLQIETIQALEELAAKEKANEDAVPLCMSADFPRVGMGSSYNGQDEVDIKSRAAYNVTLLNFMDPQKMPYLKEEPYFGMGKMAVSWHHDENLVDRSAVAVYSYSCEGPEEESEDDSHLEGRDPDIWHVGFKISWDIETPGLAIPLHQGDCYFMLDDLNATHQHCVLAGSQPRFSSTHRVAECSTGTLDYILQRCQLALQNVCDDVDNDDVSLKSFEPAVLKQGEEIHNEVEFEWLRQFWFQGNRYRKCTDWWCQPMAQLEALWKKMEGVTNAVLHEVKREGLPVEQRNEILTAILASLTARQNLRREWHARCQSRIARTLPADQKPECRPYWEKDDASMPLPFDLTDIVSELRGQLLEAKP

NB-4 [2] = test: Cytotoxicity against human NB4 cells assessed as inhibition of cell growth incubated for 72 hrs by MTS assay relative to control; assay type: functional
[3] = Cytotoxicity against human MM6 cells assessed as inhibition of cell growth incubated for 72 hrs by MTS assay relative to control; assay type: functional
NB-4 [4] = test: Cytotoxicity against human NB4 cells assessed as inhibition of cell growth incubated for 72 hrs by MTS assay; assay type: functional, cell-based; details: NB-4, 72 h
[5] = Cytotoxicity against human MM6 cells assessed as inhibition of cell growth incubated for 72 hrs by MTS assay; assay type: functional, cell-based
NB-4 [6] = test: Cytotoxicity against human NB4 cells assessed as inhibition of cell growth incubated for 48 hrs by MTS assay; assay type: functional, cell-based; details: NB-4, 48 h
[7] = Cytotoxicity against human MM6 cells assessed as inhibition of cell growth incubated for 48 hrs by MTS assay; assay type: functional, cell-based
MONO-MAC-6 [8] = test: Antitumor activity against human MONO-MAC-6 cells xenografted in NSG mouse assessed as mouse survival at 2 mg/kg, ip dosed for ten consecutive days and measured after 40 days post treatment; assay type: functional; details: MONO-MAC-6, ip, 960 h
MONO-MAC-6 [9] = test: Antitumor activity against human MONO-MAC-6 cells xenografted in NSG mouse assessed as mouse survival at 2 mg/kg, ip dosed for ten consecutive days and measured after 55 days post treatment; assay type: functional; details: MONO-MAC-6, ip, 1320 h
MONO-MAC-6 [10] = test: Antitumor activity against human MONO-MAC-6 cells xenografted in NSG mouse assessed as mouse survival at 2 mg/kg, ip dosed for ten consecutive days and measured after 60 days post treatment; assay type: functional; details: MONO-MAC-6, ip, 1440 h
MONO-MAC-6 [11] = test: Antitumor activity against human MONO-MAC-6 cells xenografted in NSG mouse assessed as mouse survival at 2 mg/kg, ip dosed for ten consecutive days and measured after 62 days post treatment; assay type: functional; details: MONO-MAC-6, ip, 1488 h
MONO-MAC-6 [12] = test: Antitumor activity against human MONO-MAC-6 cells xenografted in NSG mouse assessed as mouse survival at 2 mg/kg, ip dosed for ten consecutive days and measured after 120 days post treatment; assay type: functional; details: MONO-MAC-6, ip, 2880 h
MONO-MAC-6 [13] = test: Antitumor activity against human MONO-MAC-6 cells xenografted in NSG mouse assessed as improvement in spleen swelling by measuring spleen weight at 2 mg/kg, ip dosed for ten consecutive days (reference value: 55 mg); assay type: functional
MONO-MAC-6 [14] = test: Antitumor activity against human MONO-MAC-6 cells xenografted in NSG mouse assessed as improvement in liver swelling by measuring liver weight at 2 mg/kg, ip dosed for ten consecutive days (reference value: 2200 mg); assay type: functional
MONO-MAC-6 [15] = test: Antitumor activity against human MONO-MAC-6 cells xenografted in NSG mouse assessed as reduction in tumor cell transplantation efficiency at 2 mg/kg, ip dosed for ten consecutive days and measured after 40 to days post treatment; assay type: functional, organism-based

SMILES	IC50 [1] [µM]	growth inhibition (GI) (NB-4 [2]) [%]	growth inhibition (GI) [3] [%]	IC50 (NB-4 [4]) [µM]	IC50 [5] [µM]	other results
Cc1noc(C)c1-c1cc(Cl)c(Nc2ccccc2-c2noc(=O)[nH]2)c(Cl)c1	1.1	100	100	5.3	5.8	IC50 (NB-4 [6]): 6.3 µM; IC50 [7]: 9.9 µM
Cc1noc(C)c1-c1cc(Cl)c(Nc2ccccc2-c2nn[nH]n2)c(Cl)c1	–	26	23	–	–	–
Cc1noc(C)c1-c1cc(Cl)c(Nc2ccccc2C(=O)O)c(Cl)c1	–	70	75	44.8	23.6	–
Cc1n[nH]c(C)c1-c1cc(Cl)c(Nc2ccccc2C(=O)O)c(Cl)c1	–	20	18	–	–	–
Cc1noc(C)c1-c1cc(Cl)c(Nc2ccccc2C(=O)NO)c(Cl)c1	1.6	100	100	0.8	1.5	IC50 (NB-4 [6]): 4.7 µM; IC50 [7]: 10.4 µM; survival at 2 mg/kg (MONO-MAC-6 [8]): 80%; survival at 2 mg/kg (MONO-MAC-6 [9]): 60%; survival at 2 mg/kg (MONO-MAC-6 [10]): 40%; survival at 2 mg/kg (MONO-MAC-6 [11]): 30%; survival at 2 mg/kg (MONO-MAC-6 [12]): 15%; Activity (MONO-MAC-6 [13]): 18 mg; Activity (MONO-MAC-6 [14]): 800 mg; Activity (MONO-MAC-6 [15]): Active

More lines, main results first:

IC50 [1] [µM]	SMILES	growth inhibition (GI) (NB-4 [2]) [%]	growth inhibition (GI) [3] [%]	IC50 (NB-4 [4]) [µM]	IC50 [5] [µM]	other results
7.6	O=C(O)c1ccccc1Nc1c(Cl)cc(-c2ccn[nH]2)cc1Cl	25	29	–	–	–
1.2	O=C(O)c1ccc(-c2cc(Cl)c(Nc3ccccc3C(=O)O)c(Cl)c2)s1	–	–	–	–	–
30 to 50	Cc1cc(C)n(-c2cc(Cl)c(Nc3ccccc3C(=O)O)c(Cl)c2)n1	–	–	–	–	–
4.6	O=C(O)c1ccccc1Nc1c(Cl)cc(-c2ccncc2)cc1Cl	39	46	–	–	–
